# Assay results published in patent US6649797B2, “Compounds and methods of use to treat infectious diseases” (The Picower Institute for Medical Research, priority 1996, dated 2003).
# Read-outs that look alike come from different tables or passages of the source.
# What was measured:
# Plasmodium falciparum = test: Antimalarial activity in vitro, [3H]-hypoxanthine incorporation; type: cell-based; details: Plasmodium falciparum
# Excerpt: The antimalarial properties of the compounds of the invention can be analyzed by techniques, assays and experimental animal models well known in the art. For example, the inhibition of growth of Plasmodium falciparum in vitro by the compounds may be assessed by the hypoxanthine-incorporation method (Desjardins et al., 1979, Antimicrob. Ag. Chemother. 16:710-718). […] The in vivo efficacy of the compounds can also be tested in mouse models in which parasitemia is enumerated following administration of the compound (Ager, A. L. 1984, Rodent malaria models, pp 225-264. In Handbook of Experimental Pharmacology vol. 68, Antimalarial Drugs, Peters and Richards eds, Springer-Verlag, Berlin).
# The antimalarial activity of the compounds was determined essentially as described in Desjardins et al. supra. Fifty μl of various concentrations of a compound of the invention, chloroquine, or pyrimethamine were added to the wells of microtiter plates, followed by 200 μl of ring-stage, synchronized, P. falciparum-infected erythrocytes (final hematocrit=1.5%, final parasitemia=1-5%). The plates were incubated for 24 hr in a candle jar kept at 37° C., and then 25 μl of [^3H]-hypoxanthine (Amersham, Arlington Heights, ILL.; 2.5 μl Ci/well) was added. The plates were then incubated for a further 24 hr, before harvesting onto Unifilter-96 GF/C filter-microplates (Packard; Meriden, Conn.). Twenty-five μl of Microscint scintillation fluid (Packard) was added to each well of the filter-microplate, which was subsequently counted in a Top-count microplate scintillation counter (Packard). The percent of [^3H]-hypoxanthine uptake relative to control infect-erythrocytes was used to determine the IC50 value for the compounds by non-linear regression for LD50 determination.
# [1] = tested on: HIV-1 pre-integration complexes / karyopherin α; test: Binding of HIV-1 pre-integration complexes to GST-karyopherin α; type: biochemical; details: for reduction of karyopherin α/HIV-1 binding: lysates of HIV-1RF infected H9 cells treated 2 hours, Phosphorimager
# Experimental: Cytoplasmic lysates of H9 cells infected with HIV-1RF (upper panel) or HIV-like pseudovirions (bottom panel) were treated for 2 hours with various concentrations of CNI-H0294, and were then mixed with GST-karyopherin α immobilized on glutathione Sepharose beads. HIV-1 DNA or RNA that co-precipitated with karyopherin α was quantified as in A and B.
# Cytoplasmic lysates prepared from H9 cells infected with HIV-1RF were treated with 10 μM CNI-H3094 (lane 1) or with 1 μM CNI-H0294 and 10 μM (lane 5), 5 μM (lane 4), 1 μM (lane 3), or no CNI-H3094 (lane 2). The amount of pre-integration complexes available for interaction with karyopherin α was quantified as in FIG. 10.
# H9 cells were infected with equal amounts of wild-type HIV-1NLHX or with mutant HIV-1NLHX that lack Vpr (Vpr^−) or carry a mutation that inactivates the MA NLS (MA NLS^−). Infected cells were washed and incubated for 4 h. An aliquot of each sample was used to quantify the total HIV-1 DNA (FIG. 14A) and the rest was used to prepare cytoplasmic extracts. Extracts were incubated with 1 μM CNI-H0294 (FIG. 14B, lanes 2, 4, 6, 8) or were left untreated (lanes 1, 3, 5, 7). The amount of pre-integration complexes available for binding to karyopherin α was determined as in FIG. 10.
# H9 cells were infected with HIV-1 or HIV-like pseudovirions (Haffar, et al., 1990, J. Virol., 64:2653-2659) at a multiplicity adjusted according to p24 content (50 ng p24 per 10^6 cells) The MA NLS^− virus contains substitutions of isoleucine residues for lysines in positions 26 and 27 of MA in an NLHX backbone (Westervelt., et al., 1992, J. Virol. 66:2577-2582), thus inactivating the NLS. The Vpr^− virus has the initiating ATG of the vpr gene changed to GTG, thus abolishing expression of this gene. The ΔMA NLS pseudovirions have leucine substituting for lysine in position 28 of MA. This mutation abrogates nuclear translocation of HIV-1 gag RNA in growth-arrested H9 cells infected with pseudovirions. After a 1 hour absorption, excess viruses or pseudovirions were washed away, and cells were incubated for an additional 2-3 hour period at 37° C. prior to analysis.
# Cytoplasmic extracts were prepared by lysing cells in cold extraction buffer (10 mM KCl, 10 mM Tris-HCl [pH 7.6], 0.5 mM MgCl2, 1 μg/ml each of leupeptin and aprotinin, and 1 MM phenylmethylsulfonyl fluoride [PMSF]) by 20-30 strokes of a Dounce homogenizer under the control of phase-contrast microscopy. After removal of nuclei, cytoplasmic extract was cleared by centrifugation at 15,000 g for 10 min.
# Cytoplasmic extracts prepared from HIV-1-or pseudovirion-infected H9 cells were adjusted to 0.14 M NaCl, 0.1% Tween 20 and precleared with glutathione-Sepharose beads for 30 min. at room temperature. Karyopherin α was expressed as a fusion protein with glutathione S-transferase (GST) which can bind glutathione beads in solution. GST-karyopherin α immobilized on Sepharose beads was then added (about 50 μg of immobilized karyopherin α per extract from 108 infected cells) and the mixture was incubated at room temperature for another 30 min. Beads were then pelleted by centrifugation and washed 3 times with PBS supplemented with 0.1% Tween 20, 1 μg/ml each of leupeptin and aprotinin, and 1 mM PMSF. HIV-1 DNA was isolated from the beads by SDS-proteinase K treatment with subsequent phenol-chloroform extraction, while pseudovirion gag RNA was isolated by RNazol (Biotecx Laboratories Inc.).
smiles,measurement,setting,value
"CC(=O)c1cc(Nc2cc(C)[n+](C)c(N)n2)cc(C(C)=O)c1 [CNI-0294, 2-Amino-4-(3,5-diacetylphenyl)amino-1,6-dimethylpyrimidinium chloride]",IC50,"Plasmodium falciparum; FCR3, clone FCR-3, ± standard deviation, read-out: IC50",3.09 ± 0.3 µM
same,IC50,"Plasmodium falciparum; HB3, clone HB3, ± standard deviation, read-out: IC50",1.79 ± 0.27 µM
same,IC50,"Plasmodium falciparum; clone D10, ± standard deviation, read-out: IC50",4 ± 0.41 µM
same,IC50,"Plasmodium falciparum; series of cloned parasites with different sensitivities to chloroquine or pyrimethamine, read-out: median inhibitory concentration (IC50)",1.79 to 4 µM
same,reduction of karyopherin α/HIV-1 binding,[1]; 0.1 μM,8 fold
same,effect on binding of karyopherin α to complexes,"[1]; 1 μM, MA NLS^− complexes",had no effect
same,diminished binding of karyopherin α to complexes,"[1]; 1 μM, Vpr^− complexes",95%
same,reduction of karyopherin α/HIV-1 binding,[1]; 1 μM,25 fold
same,diminished binding of karyopherin α to complexes,"[1]; 1 μM, wild-type (wt) HIV-1NLHX complexes",95%
same,interaction of pre-integration complexes with karyopherin α,[1]; 10 μM (FIG. 13A),blocked the interaction
